Assay results published in patent US9422338B2 (EpoDose LLC, priority 2011, dated 2016).
Where a SMILES comes first, the peptide text is derived from it. Bridges are numbered along the chain shown (N, C = ends). Roman numbers before positions name the chains, in order. [ ]: non-standard residue; d: D form. ξ: configuration not given here. 1Nal = N[C@@H](Cc1cccc2ccccc12)C(=O)O; ξK = NCCCCC(N)C(=O)O; Ava = NCCCCC(=O)O

Biological target: T1, EPOR (erythropoietin receptor), human recombinant, NSO cells (Homo sapiens, UniProt P19235)
T1 construct: host or cells: NSO cells
T1 sequence (P19235 25-250 limits assumed): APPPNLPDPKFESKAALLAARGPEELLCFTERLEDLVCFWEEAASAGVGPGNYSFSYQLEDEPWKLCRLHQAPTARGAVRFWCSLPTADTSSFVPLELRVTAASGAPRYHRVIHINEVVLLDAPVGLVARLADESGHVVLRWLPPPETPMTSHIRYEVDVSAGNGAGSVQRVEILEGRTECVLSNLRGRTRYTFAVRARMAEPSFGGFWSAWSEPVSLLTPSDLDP
Assay: EPOR radioligand binding assay ([125I] Erythropoietin competition)
Protocol: IC50 values were determined by a non-linear, least squares regression analysis using MATHIQ™ (computer software for integrating mathematical functions into new or existing software). […] Where presented, the Hill coefficient (nH), defining the slope of the competitive binding curve, was calculated using MATHIQ™.

[1] = Example 1, mimetics varied in N-end, loop and mid sequences

SMILES	Ki [1]	IC50 (Example 4, first table)	further results
CC[C@H](C)[C@@H]1NC(=O)[C@@H]2CCCN2C(=O)CNC(=O)[C@H](CCSC)NC(=O)[C@H](CCCNC(=N)N)NC(=O)[C@@H](NC(=O)[C@H](CC(C)C)NC(=O)[C@H](Cc2ccc(O)cc2)NC(=O)[C@H](CC(N)=O)NC(C)=O)CSSC[C@@H](C(=O)N[C@@H](CCCCN)C(=O)N2CCC[C@H]2C(=O)NCCCCC(=O)NCCCCC(NC(=O)[C@@H]2CCCN2C(=O)[C@H](CCCCN)NC(=O)[C@@H]2CSSC[C@H](NC(=O)[C@H](CC(C)C)NC(=O)[C@H](Cc3ccc(O)cc3)NC(=O)[C@H](CC(N)=O)NC(C)=O)C(=O)N[C@@H](CCCNC(=N)N)C(=O)N[C@@H](CCSC)C(=O)NCC(=O)N3CCC[C@H]3C(=O)N[C@@H]([C@@H](C)CC)C(=O)N[C@@H]([C@@H](C)O)C(=O)N[C@@H](Cc3c[nH]c4ccccc34)C(=O)N[C@@H](C(C)C)C(=O)N2)C(N)=O)NC(=O)[C@H](C(C)C)NC(=O)[C@H](Cc2c[nH]c3ccccc23)NC(=O)[C@H]([C@@H](C)O)NC1=O (stereo partly drawn) [AC-0005-003] (I: Ac-NYLCRMGPITWVCKP[ξK]-NH2 / II: Ac-NYLCRMGPITWVCKP[Ava]; disulfide I:4-I:13, II:4-II:13; amide I:16-II:C)	48 nM		
CC[C@H](C)[C@@H]1NC(=O)[C@@H]2CCCN2C(=O)CNC(=O)[C@H](CCSC)NC(=O)[C@H](Cc2c[nH]cn2)NC(=O)[C@@H](NC(=O)[C@H](C)NC(=O)[C@H](Cc2ccc(O)cc2)NC(=O)[C@H](CC(C)C)NC(C)=O)CSSC[C@@H](C(=O)N[C@@H](CCC(N)=O)C(=O)NCCCCC(=O)NCCCCC(NC(=O)[C@H](CCC(N)=O)NC(=O)[C@@H]2CSSC[C@H](NC(=O)[C@H](C)NC(=O)[C@H](Cc3ccc(O)cc3)NC(=O)[C@H](CC(C)C)NC(C)=O)C(=O)N[C@@H](Cc3c[nH]cn3)C(=O)N[C@@H](CCSC)C(=O)NCC(=O)N3CCC[C@H]3C(=O)N[C@@H]([C@@H](C)CC)C(=O)N[C@@H]([C@@H](C)O)C(=O)N[C@@H](Cc3cccc4ccccc34)C(=O)N[C@@H](C(C)C)C(=O)N2)C(N)=O)NC(=O)[C@H](C(C)C)NC(=O)[C@H](Cc2cccc3ccccc23)NC(=O)[C@H]([C@@H](C)O)NC1=O (stereo partly drawn) [AC-0005-005] (I: Ac-LYACHMGPIT[1Nal]VCQ[ξK]-NH2 / II: Ac-LYACHMGPIT[1Nal]VCQ[Ava]; disulfide I:4-I:13, II:4-II:13; amide I:15-II:C)		> 10000 nM	
CC[C@H](C)[C@@H]1NC(=O)[C@@H]2CCCN2C(=O)CNC(=O)[C@H](CCSC)NC(=O)[C@H](Cc2c[nH]cn2)NC(=O)[C@@H](NC(=O)[C@H](C)NC(=O)[C@H](Cc2ccc(O)cc2)NC(=O)[C@H](CC(C)C)NC(C)=O)CSSC[C@@H](C(=O)NCCCCC(=O)NCCCCC(NC(=O)[C@@H]2CSSC[C@H](NC(=O)[C@H](C)NC(=O)[C@H](Cc3ccc(O)cc3)NC(=O)[C@H](CC(C)C)NC(C)=O)C(=O)N[C@@H](Cc3c[nH]cn3)C(=O)N[C@@H](CCSC)C(=O)NCC(=O)N3CCC[C@H]3C(=O)N[C@@H]([C@@H](C)CC)C(=O)N[C@@H]([C@@H](C)O)C(=O)N[C@@H](Cc3cccc4ccccc34)C(=O)N[C@@H](C(C)C)C(=O)N2)C(N)=O)NC(=O)[C@H](C(C)C)NC(=O)[C@H](Cc2cccc3ccccc23)NC(=O)[C@H]([C@@H](C)O)NC1=O (stereo partly drawn) [AC-0005-006] (I: Ac-LYACHMGPIT[1Nal]VC[ξK]-NH2 / II: Ac-LYACHMGPIT[1Nal]VC[Ava]; disulfide I:4-I:13, II:4-II:13; amide I:14-II:C)		> 10000 nM	
CC[C@H](C)[C@@H]1NC(=O)[C@@H]2CCCN2C(=O)CNC(=O)[C@H](CCSC)NC(=O)[C@H](Cc2c[nH]cn2)NC(=O)C(NC(=O)[C@H](C)NC(=O)[C@H](Cc2ccc(O)cc2)NC(=O)[C@H](CC(C)C)NC(C)=O)CCOCC(C(=O)N[C@@H](CCC(N)=O)C(=O)N2CCC[C@H]2C(=O)NCCCCC(=O)NCCCCC(NC(=O)[C@@H]2CCCN2C(=O)[C@H](CCC(N)=O)NC(=O)C2COCCC(NC(=O)[C@H](C)NC(=O)[C@H](Cc3ccc(O)cc3)NC(=O)[C@H](CC(C)C)NC(C)=O)C(=O)N[C@@H](Cc3c[nH]cn3)C(=O)N[C@@H](CCSC)C(=O)NCC(=O)N3CCC[C@H]3C(=O)N[C@@H]([C@@H](C)CC)C(=O)N[C@@H]([C@@H](C)O)C(=O)N[C@@H](Cc3cccc4ccccc34)C(=O)N[C@@H](C(C)C)C(=O)N2)C(N)=O)NC(=O)[C@H](C(C)C)NC(=O)[C@H](Cc2cccc3ccccc23)NC(=O)[C@H]([C@@H](C)O)NC1=O (stereo partly drawn) [AC-0005-007]		4950 nM	Ki (Example 4, first table): 2350 nM

Continued, in another order:

Ki [1]	IC50 (Example 4, first table)	SMILES	further results
	> 10000 nM	CC[C@H](C)[C@@H]1NC(=O)[C@@H]2CCCN2C(=O)CNC(=O)[C@H](CCSC)NC(=O)[C@H](CCCNC(=N)N)NC(=O)C(NC(=O)[C@H](C)NC(=O)[C@H](Cc2ccc(O)cc2)NC(=O)[C@H](CC(C)C)NC(C)=O)CCOCC(C(=O)NCCCCC(=O)NCCCCC(NC(=O)C2COCCC(NC(=O)[C@H](C)NC(=O)[C@H](Cc3ccc(O)cc3)NC(=O)[C@H](CC(C)C)NC(C)=O)C(=O)N[C@@H](CCCNC(=N)N)C(=O)N[C@@H](CCSC)C(=O)NCC(=O)N3CCC[C@H]3C(=O)N[C@@H]([C@@H](C)CC)C(=O)N[C@@H]([C@@H](C)O)C(=O)N[C@@H](Cc3cccc4ccccc34)C(=O)N[C@@H](C(C)C)C(=O)N2)C(N)=O)NC(=O)[C@H](C(C)C)NC(=O)[C@H](Cc2cccc3ccccc23)NC(=O)[C@H]([C@@H](C)O)NC1=O (stereo partly drawn) [AC-0005-008]	
22 nM		CSCC[C@@H]1NC(=O)[C@H](CCCNC(=N)N)NC(=O)C(NC(=O)[C@H](CC(C)C)NC(=O)[C@H](Cc2ccc(O)cc2)NC(=O)[C@H](CC(N)=O)NC(C)=O)CCOCC(C(=O)N[C@@H](CCCCN)C(=O)N2CCC[C@H]2C(=O)NCCCCC(=O)NCCCCC(NC(=O)[C@@H]2CCCN2C(=O)[C@H](CCCCN)NC(=O)C2COCCC(NC(=O)[C@H](CC(C)C)NC(=O)[C@H](Cc3ccc(O)cc3)NC(=O)[C@H](CC(N)=O)NC(C)=O)C(=O)N[C@@H](CCCNC(=N)N)C(=O)N[C@@H](CCSC)C(=O)NCC(=O)N[C@@H](Cc3c[nH]c4ccccc34)C(=O)N[C@@H](C(C)C)C(=O)N2)C(N)=O)NC(=O)[C@H](C(C)C)NC(=O)[C@H](Cc2c[nH]c3ccccc23)NC(=O)CNC1=O (stereo partly drawn) [AC-0005-018]	IC50 (Example 4, fourth table): 70 nM; Ki (Example 4, fourth table): 33 nM; IC50 (Example 4, second table): 47 nM
27 nM		CSCC[C@@H]1NC(=O)[C@H](CCCNC(=N)N)NC(=O)C(NC(=O)[C@H](CC(C)C)NC(=O)[C@H](Cc2ccc(O)cc2)NC(=O)[C@H](CC(N)=O)NC(C)=O)CCOCC(C(=O)N[C@@H](CCCCN)C(=O)N2CCC[C@H]2C(=O)NCCCCC(=O)NCCCCC(NC(=O)[C@@H]2CCCN2C(=O)[C@H](CCCCN)NC(=O)C2COCCC(NC(=O)[C@H](CC(C)C)NC(=O)[C@H](Cc3ccc(O)cc3)NC(=O)[C@H](CC(N)=O)NC(C)=O)C(=O)N[C@@H](CCCNC(=N)N)C(=O)N[C@@H](CCSC)C(=O)NCCC(=O)N[C@@H](Cc3c[nH]c4ccccc34)C(=O)N[C@@H](C(C)C)C(=O)N2)C(N)=O)NC(=O)[C@H](C(C)C)NC(=O)[C@H](Cc2c[nH]c3ccccc23)NC(=O)CCNC1=O (stereo partly drawn) [AC-0005-019]	IC50 (Example 4, second table): 57 nM
